For 28 targets, thermal stability z-score results are on record in the supplement of paper PMC12463676, “Small-molecule dissolution of stress granules by redox modulation benefits ALS models” (Nature Chemical Biology, 2025).

Compound in test [1]: NC(=O)CCCCC1CCSS1 [lipoamide]
The test is described as follows: thermal stability z-score vs DMSO; higher = more thermally stabilized by treatment. The conditions noted are these: HeLa, lipoamide concentration 100 µM. As to the method:
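Cellular thermal proteome profiling in HeLa cells. Cells were treated with 100 µM lipoamide for 1 h, with or without 1 mM arsenate for a further 1 h, then heated to ten temperatures (37-66.3 °C), and soluble protein was quantified by TMT mass spectrometry relative to 0.1% DMSO controls. The thermal stability score (sum of log2 fold changes minus the abundance score) was transformed to a z-score; mean of n = 3 experiments.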

Compound in test [2]: O=[As]([O-])(O)O.[K+] [potassium arsenate]
Described as above. The settings on record: HeLa; arsenate concentration 1 mM. As to the method:
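Cellular thermal proteome profiling in HeLa cells treated with 1 mM arsenate for 1 h (DMSO pretreatment), heated to ten temperatures (37-66.3 °C). Soluble protein was quantified by TMT mass spectrometry relative to DMSO controls; the thermal stability score was transformed to a z-score; mean of n = 3 experiments.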

The mark [3] stands for this setting: arsenate co-treatment: 1 mM arsenate 1 h.
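Also: each temperature applied for 3 min, abundance score taken as mean log2 fold change at the two lowest temperatures, z-score obtained by mean subtraction and division by SD.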

Sequence of UniProt P52597 (P52597 whole entry): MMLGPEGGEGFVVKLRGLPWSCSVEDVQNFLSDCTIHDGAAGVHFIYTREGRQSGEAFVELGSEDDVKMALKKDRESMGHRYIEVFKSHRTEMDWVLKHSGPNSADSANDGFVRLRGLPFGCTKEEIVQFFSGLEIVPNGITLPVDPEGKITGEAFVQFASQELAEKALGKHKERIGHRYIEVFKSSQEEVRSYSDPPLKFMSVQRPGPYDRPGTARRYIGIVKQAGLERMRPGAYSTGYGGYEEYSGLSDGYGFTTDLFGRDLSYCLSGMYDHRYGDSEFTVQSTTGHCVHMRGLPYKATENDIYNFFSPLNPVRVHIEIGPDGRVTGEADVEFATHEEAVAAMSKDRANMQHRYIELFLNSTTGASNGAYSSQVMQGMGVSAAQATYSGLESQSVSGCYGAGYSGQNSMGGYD
Sequence of UniProt Q969F9 (Q969F9 whole entry): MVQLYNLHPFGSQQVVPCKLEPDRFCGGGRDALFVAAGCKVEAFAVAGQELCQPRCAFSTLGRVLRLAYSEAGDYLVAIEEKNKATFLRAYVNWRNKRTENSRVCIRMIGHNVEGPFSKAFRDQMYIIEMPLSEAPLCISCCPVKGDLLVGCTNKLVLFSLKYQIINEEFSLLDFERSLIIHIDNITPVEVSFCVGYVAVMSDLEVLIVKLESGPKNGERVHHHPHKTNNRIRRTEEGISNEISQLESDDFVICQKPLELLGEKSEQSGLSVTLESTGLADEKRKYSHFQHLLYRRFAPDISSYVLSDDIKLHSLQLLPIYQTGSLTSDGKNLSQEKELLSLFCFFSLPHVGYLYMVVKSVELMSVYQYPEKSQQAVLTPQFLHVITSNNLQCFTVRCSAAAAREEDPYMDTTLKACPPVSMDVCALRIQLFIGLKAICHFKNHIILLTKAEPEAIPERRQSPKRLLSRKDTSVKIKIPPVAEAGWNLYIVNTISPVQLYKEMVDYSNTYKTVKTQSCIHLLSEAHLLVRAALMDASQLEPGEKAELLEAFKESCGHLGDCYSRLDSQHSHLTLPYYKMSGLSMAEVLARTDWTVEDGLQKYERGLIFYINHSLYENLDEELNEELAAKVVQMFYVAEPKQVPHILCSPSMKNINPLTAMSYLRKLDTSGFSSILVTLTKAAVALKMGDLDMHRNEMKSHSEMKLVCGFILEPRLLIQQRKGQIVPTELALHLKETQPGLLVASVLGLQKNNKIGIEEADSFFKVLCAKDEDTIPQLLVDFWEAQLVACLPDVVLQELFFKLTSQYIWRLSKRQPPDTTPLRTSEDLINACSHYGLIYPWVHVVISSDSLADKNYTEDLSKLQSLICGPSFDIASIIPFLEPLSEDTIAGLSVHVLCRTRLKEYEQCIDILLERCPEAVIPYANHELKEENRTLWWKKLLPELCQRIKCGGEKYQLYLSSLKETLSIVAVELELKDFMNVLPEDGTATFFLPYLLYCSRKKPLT
Sequence of UniProt P55795 (P55795 whole entry): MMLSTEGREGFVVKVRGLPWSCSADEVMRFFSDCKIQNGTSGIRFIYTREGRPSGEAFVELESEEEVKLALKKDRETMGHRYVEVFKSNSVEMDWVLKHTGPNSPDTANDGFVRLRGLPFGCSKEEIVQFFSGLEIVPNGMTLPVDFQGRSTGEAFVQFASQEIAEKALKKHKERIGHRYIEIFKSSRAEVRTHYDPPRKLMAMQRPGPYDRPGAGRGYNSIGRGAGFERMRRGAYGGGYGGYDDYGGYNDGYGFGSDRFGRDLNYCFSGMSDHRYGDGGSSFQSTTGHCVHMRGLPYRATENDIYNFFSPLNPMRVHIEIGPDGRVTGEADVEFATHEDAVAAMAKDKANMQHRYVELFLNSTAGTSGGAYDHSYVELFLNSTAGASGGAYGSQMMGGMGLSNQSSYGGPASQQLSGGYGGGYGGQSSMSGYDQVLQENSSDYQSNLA
Sequence of UniProt Q96IR7 (Q96IR7 whole entry): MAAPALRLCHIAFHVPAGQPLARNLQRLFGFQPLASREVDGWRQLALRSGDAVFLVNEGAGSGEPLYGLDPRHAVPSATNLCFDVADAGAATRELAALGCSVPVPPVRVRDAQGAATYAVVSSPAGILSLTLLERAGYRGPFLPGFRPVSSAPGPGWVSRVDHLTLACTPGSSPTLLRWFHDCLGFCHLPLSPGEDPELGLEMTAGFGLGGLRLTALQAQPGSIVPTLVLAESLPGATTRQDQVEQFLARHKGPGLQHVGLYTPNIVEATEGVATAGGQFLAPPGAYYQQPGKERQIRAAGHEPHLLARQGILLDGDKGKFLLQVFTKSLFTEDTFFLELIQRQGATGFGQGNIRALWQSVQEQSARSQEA
Sequence of UniProt O14979 (O14979 whole entry): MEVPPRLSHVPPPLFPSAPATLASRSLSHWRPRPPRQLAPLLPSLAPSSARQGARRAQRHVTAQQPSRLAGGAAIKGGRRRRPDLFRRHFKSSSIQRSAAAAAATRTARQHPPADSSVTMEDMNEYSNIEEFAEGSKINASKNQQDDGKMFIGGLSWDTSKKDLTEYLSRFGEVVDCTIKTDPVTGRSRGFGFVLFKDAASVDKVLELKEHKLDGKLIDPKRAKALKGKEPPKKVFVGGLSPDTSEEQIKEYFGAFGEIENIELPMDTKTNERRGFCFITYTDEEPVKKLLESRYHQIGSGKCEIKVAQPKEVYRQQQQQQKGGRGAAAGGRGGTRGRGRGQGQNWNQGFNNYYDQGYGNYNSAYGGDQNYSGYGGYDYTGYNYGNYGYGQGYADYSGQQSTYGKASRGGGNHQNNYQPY
Sequence of UniProt Q1KMD3 (Q1KMD3 whole entry): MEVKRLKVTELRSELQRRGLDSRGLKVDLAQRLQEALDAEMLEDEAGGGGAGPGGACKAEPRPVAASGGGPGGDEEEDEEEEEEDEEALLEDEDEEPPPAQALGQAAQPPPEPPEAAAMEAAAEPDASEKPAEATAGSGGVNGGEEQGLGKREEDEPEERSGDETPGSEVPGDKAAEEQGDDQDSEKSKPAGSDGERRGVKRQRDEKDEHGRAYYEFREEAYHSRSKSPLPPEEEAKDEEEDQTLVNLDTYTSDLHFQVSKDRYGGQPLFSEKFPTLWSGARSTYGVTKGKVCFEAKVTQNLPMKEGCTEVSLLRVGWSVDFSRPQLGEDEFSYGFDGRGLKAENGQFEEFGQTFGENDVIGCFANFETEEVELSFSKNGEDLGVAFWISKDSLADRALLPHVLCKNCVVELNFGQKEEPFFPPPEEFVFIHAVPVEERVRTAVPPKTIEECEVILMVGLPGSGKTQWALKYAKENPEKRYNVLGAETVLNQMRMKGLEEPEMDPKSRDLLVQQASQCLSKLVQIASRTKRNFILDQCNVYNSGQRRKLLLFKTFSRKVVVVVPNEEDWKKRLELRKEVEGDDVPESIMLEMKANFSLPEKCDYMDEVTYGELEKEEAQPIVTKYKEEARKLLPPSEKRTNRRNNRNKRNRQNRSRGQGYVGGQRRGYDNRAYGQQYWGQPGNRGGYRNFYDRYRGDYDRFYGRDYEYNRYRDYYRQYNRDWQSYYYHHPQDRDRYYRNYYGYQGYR
Sequence of UniProt Q86VS8 (Q86VS8 whole entry): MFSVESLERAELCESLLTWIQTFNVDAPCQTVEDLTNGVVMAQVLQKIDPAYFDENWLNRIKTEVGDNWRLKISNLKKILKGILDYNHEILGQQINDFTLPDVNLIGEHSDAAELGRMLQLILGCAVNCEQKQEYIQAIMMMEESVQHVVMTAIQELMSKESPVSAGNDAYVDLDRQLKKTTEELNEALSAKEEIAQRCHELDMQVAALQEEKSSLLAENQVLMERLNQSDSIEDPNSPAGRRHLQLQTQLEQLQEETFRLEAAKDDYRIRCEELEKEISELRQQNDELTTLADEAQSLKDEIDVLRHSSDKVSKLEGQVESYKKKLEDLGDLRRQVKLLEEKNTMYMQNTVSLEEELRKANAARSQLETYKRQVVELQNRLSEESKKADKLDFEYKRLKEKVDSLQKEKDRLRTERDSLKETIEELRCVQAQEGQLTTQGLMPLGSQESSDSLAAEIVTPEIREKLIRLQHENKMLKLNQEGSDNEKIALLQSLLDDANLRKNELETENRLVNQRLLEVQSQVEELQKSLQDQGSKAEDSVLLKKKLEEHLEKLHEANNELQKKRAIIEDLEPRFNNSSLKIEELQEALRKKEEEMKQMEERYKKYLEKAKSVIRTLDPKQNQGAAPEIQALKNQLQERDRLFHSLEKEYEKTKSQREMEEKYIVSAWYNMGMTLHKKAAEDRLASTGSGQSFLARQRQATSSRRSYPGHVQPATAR
Sequence of UniProt P31942 (P31942 whole entry): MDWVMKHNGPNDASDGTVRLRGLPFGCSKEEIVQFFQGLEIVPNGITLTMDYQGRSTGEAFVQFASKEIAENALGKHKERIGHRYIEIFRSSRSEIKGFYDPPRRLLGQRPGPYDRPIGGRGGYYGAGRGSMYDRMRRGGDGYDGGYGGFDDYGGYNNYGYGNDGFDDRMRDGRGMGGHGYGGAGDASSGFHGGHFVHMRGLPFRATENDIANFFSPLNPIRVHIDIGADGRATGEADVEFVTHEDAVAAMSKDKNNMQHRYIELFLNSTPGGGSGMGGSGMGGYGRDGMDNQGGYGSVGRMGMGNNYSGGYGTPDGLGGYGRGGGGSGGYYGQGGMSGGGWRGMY
Sequence of UniProt Q5SSJ5 (Q5SSJ5 whole entry): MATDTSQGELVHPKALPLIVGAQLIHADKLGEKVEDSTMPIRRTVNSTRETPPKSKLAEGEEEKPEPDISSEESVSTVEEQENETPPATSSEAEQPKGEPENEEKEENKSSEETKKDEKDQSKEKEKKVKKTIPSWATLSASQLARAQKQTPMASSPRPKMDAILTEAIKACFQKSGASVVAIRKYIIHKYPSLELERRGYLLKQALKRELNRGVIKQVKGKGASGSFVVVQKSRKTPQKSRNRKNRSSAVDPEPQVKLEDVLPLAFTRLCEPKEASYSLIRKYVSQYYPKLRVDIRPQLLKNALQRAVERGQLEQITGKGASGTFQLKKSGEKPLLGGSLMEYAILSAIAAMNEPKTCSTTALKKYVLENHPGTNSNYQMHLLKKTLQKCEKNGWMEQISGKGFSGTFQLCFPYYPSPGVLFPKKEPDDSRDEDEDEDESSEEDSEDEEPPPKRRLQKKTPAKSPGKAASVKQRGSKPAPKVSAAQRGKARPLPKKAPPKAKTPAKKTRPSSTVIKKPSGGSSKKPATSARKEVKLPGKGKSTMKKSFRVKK

With HNRNPAB (UniProt Q99729), the thermal stability z-score was 0.89 in test [1] (setting [3]), 0.554 in test [1] (arsenate co-treatment: none) and -0.447 in test [2].

Regarding HNRNPC (UniProt P07910), the results for the thermal stability z-score in test [1] (setting [3]), in test [1] (arsenate co-treatment: none) and in test [2] were 2.24, 1.04 and 0.94, respectively.

For the target HNRNPD (UniProt Q14103), the results for the thermal stability z-score in test [1] (setting [3]), in test [1] (arsenate co-treatment: none) and in test [2] were 0.285, -0.223 and -0.562, respectively.

Regarding HNRNPDL (UniProt O14979), the thermal stability z-score in test [1] (setting [3]) is 0.895; in test [1] (arsenate co-treatment: none), 0.34; in test [2], -1.85.

HNRNPF (UniProt P52597): the thermal stability z-score in test [1] (setting [3]) is -0.401; in test [1] (arsenate co-treatment: none), -0.136; in test [2], -0.208.

On to HNRNPH1 (UniProt P31943), for which the thermal stability z-score was -0.365 in test [1] (setting [3]), 0.482 in test [1] (arsenate co-treatment: none) and -0.9 in test [2].

On to HNRNPH2 (UniProt P55795), for which the values for the thermal stability z-score in test [1] (setting [3]), in test [1] (arsenate co-treatment: none) and in test [2] were -0.319, -0.0126 and -0.224, respectively.

Take HNRNPH3 (UniProt P31942): the results for the thermal stability z-score in test [1] (setting [3]), in test [1] (arsenate co-treatment: none) and in test [2] were -0.175, 0.0351 and -0.243, respectively.

For the target HNRNPK (UniProt P61978), the thermal stability z-score in test [1] (setting [3]) was -0.316; in test [1] (arsenate co-treatment: none), 0.559; in test [2] it was -1.69.

With HNRNPL (UniProt P14866), the results for the thermal stability z-score in test [1] (setting [3]), in test [1] (arsenate co-treatment: none) and in test [2] were 0.204, 0.05 and -2.57, respectively.

Take HNRNPLL|HNRPLL: the thermal stability z-score in test [1] (setting [3]) is -0.126; in test [1] (arsenate co-treatment: none), -0.082; in test [2], -0.917.

Turning to HNRNPM (UniProt P52272), the thermal stability z-score in test [1] (setting [3]) is -0.523; in test [1] (arsenate co-treatment: none), -0.135; in test [2], -1.87.

As for HNRNPR (UniProt O43390), the thermal stability z-score in test [1] (setting [3]) is 0.306; in test [1] (arsenate co-treatment: none), -0.456; in test [2] it was -1.96.

HNRNPU (UniProt Q00839): the thermal stability z-score was 0.572 in test [1] (setting [3]), 1.39 in test [1] (arsenate co-treatment: none) and 0.509 in test [2].

With HNRNPUL1 (UniProt Q9BUJ2), the thermal stability z-score was 0.162 in test [1] (setting [3]), 0.44 in test [1] (arsenate co-treatment: none) and 0.283 in test [2].

Consider HNRNPUL2 (UniProt Q1KMD3), for which the thermal stability z-score in test [1] (setting [3]) was 0.105; in test [1] (arsenate co-treatment: none) it was 0.057; in test [2], -0.392.

As to HOMER1 (UniProt Q86YM7), the thermal stability z-score in test [1] (setting [3]) worked out at 0.64; in test [1] (arsenate co-treatment: none), 0.353; in test [2], 1.54.

As for HOMER3 (UniProt Q9NSC5), the thermal stability z-score is 0.5 in test [1] (setting [3]), 0.526 in test [1] (arsenate co-treatment: none) and 0.462 in test [2].

With HOOK1 (UniProt Q9UJC3), the thermal stability z-score was -1.15 in test [1] (setting [3]), -0.591 in test [1] (arsenate co-treatment: none) and -0.199 in test [2].

Turning to HOOK2 (UniProt Q96ED9), the thermal stability z-score in test [1] (setting [3]) is 0.0635; in test [1] (arsenate co-treatment: none), -0.0859; in test [2] it was -0.0139.

With HOOK3 (UniProt Q86VS8), the thermal stability z-score in test [1] (setting [3]) was -0.807; in test [1] (arsenate co-treatment: none) it was -0.326; in test [2] it was -0.272.

Take HP1BP3 (UniProt Q5SSJ5): the thermal stability z-score in test [1] (setting [3]) is -0.693; in test [1] (arsenate co-treatment: none), -0.792; in test [2], -1.08.

For HPCAL1 (UniProt P37235), the thermal stability z-score in test [1] (setting [3]) is 1.09; in test [1] (arsenate co-treatment: none), 1.31; in test [2], 0.342.

On to HPD (UniProt P32754), for which the thermal stability z-score was 0.25 in test [1] (setting [3]), 0.117 in test [1] (arsenate co-treatment: none) and 1.61 in test [2].

As to HPDL (UniProt Q96IR7), the thermal stability z-score in test [1] (setting [3]) was found to be 1.09; in test [1] (arsenate co-treatment: none), 0.497; in test [2], 1.13.

With HPRT1 (UniProt P00492), the thermal stability z-score in test [1] (setting [3]) was 0.468; in test [1] (arsenate co-treatment: none), 0.716; in test [2] it was 0.0837.

With HPS3 (UniProt Q969F9), the thermal stability z-score is -0.021 in test [1] (setting [3]), 0.206 in test [1] (arsenate co-treatment: none) and -0.255 in test [2].

As to HPS5 (UniProt Q9UPZ3), the figures for the thermal stability z-score in test [1] (setting [3]), in test [1] (arsenate co-treatment: none) and in test [2] were -0.0872, 0.00734 and -0.219, respectively.
